“Also recorded” adds a separate entry of the source.
Key:
INS-1 cells = assay: Whole cell mitochondrial fusion assay (paGFP) in INS-1 cells; type: cell-based; conditions: 1 nM, 48 hours
Source text: Mitochondrial dynamics is necessary for the maintenance of bioenergetic functions and maintenance of homogenous population of mitochondria. Mutations in Mfn2 and Opal have been implicated in neuropathies. A whole cell fusion assay was used to evaluate the effect of LNK-754 on the enhancement of mitochondrial fusion and fission events. Photo-activateable GFP is used to label and follow an individual mitochondrion. Photo-activatable GFP becomes fluorescent only after absorbing UV light. Mitochondria undergo frequent fusion and fission. During fusion, the labeled mitochondrion passes fluorescent GFP to a neighboring unlabeled mitochondrion (Molina and Shirihai, […], 2009). […] The following assay protocol was followed: paGFP expression was carried out using adenoviral transduction if INS-1 cells. The cells were treated for 48 hours with 1 nM LNK-754. Mitochondria were labeled with TMRE to facilitate tagging. UV pulse was delivered by two-photon laser. Z-stacks of individual cells were taken every 5 minutes for 30 minutes. Three separate runs were performed over 3 weeks at imaging facilities.

GGTase = GGTase (Homo sapiens, UniProt P49354+P53609); assay: GGTase inhibitory activity, general statement; type: biochemical; conditions: selective FTase inhibitors
INS1 cells = assay: Glucolipotoxicity-induced mitochondrial fragmentation in INS1 cells; type: cell-based; conditions: 1 nM
Protocol: To determine the effect of LNK-754 on glucolipotoxicity-induced mitochondrial fragmentation, LNK-754 at 1 nM and 100 nM concentrations was cultured with INS1 cells in media containing palmitate according to methods and procedures described in Molina et. al. 2009. […] Treatment with 1 nM LNK-754 results in about a 70% increase in normal mitochondrial morphology in comparison with no treatment with LNK-754. […] Treatment with 1 nM LNK-754 results in about a 55% decrease in fragmentation induced by palmitate. Low dose LNK-754 protected INS1 cells from glucolipotoxicity-induced mitochondrial fragmentation as evident from the striking mitochondrial imaging results.

TAU = assay: TAU441 transgenic mice, TAU immunoreactivity (AT180, HT7) in amygdala; type: in vivo, mouse; conditions: 0.09 mg/kg once every 24 hours, three months, vs vehicle
Protocol: Animals and treatments: Male and female human WT alpha-synuclein over-expressing transgenic mice^32 at 6 months of age were given vehicle (10% beta-cyclodextrin) or LNK-754-TS (0.09, 0.9 and 9 mg/kg) per oral gavage twice daily for 3 months or animals at 7 months of age were given vehicle (2.5% beta-cyclodextrin) or LNK-754-TS (2 mg/kg) once every three days for 3 months. […]
Immunohistochemistry and quantification of stained cells: For evaluation of α-synuclein immunoreactivity (IR), 5 sagittal cryo-cut sections (10 μm slice thickness) from five different layers were used for counting of IR cells in the cortex and hippocampus. […] IR positive cells were quantified using specialized image analysis software (Image Pro Plus, version 4.5.1.29). […] Images were evaluated with ImageProPlus (version 6.2) image analysis software. […] Primary antibodies were detected by the ABC method.
This study was designed to evaluate the effects of a treatment with LNK-754-TS dosed at 0.09 mg per kg on behavior, TAU and TAU-pT231 levels, and brain morphology of TAU441 Tg mice. Histological evaluations were performed to quantitatively evaluate TAU pathology. TAU depositions were determined using the monoclonal TAU-antibodies AT180 and HT7. […] Afterwards images were evaluated with ImageProPlus (version 6.2) image analysis software (FIG. 10A).

[1] = 3T3H-ras (61 L) xenograft tumor-bearing athymic mouse, continuous infusion 7 days, PK/PD; type: in vivo; conditions: intravenous, calculated from minimal continuous serum level of 100 ng/ml, read-out: minimal efficacious AUC
Source text: FIG. 3 provides pharmacokinetic and pharmacodynamic data for continuously infused LNK-754 (CP-609,754) in a 3T3H-ras (61 L) xenograft tumor-bearing athymic mouse (7 day treatment). […] From Pfizer Investigational New Drug Application for CP-609,754, Section 8, Pharmacology and Toxicology, dated Nov. 19, 1999. See also Moulder et al., Clinical Cancer Research 10:7127-7135, Nov. 1, 2004.
Further data supporting the stark difference in dosing levels for efficacy in oncology and synucleinopathies is shown in FIG. 3 and Table 2A below. In the experiment shown in FIG. 3, a xenograft model is once again used, but there is continuous infusion of LNK-754-TS, and thus a steady state concentration of drug in the plasma and tissues.
In the experimental data represented in Table 2A, a different method of drug delivery is used (oral) than in the experiment represented in FIG. 3. The best way to compare the relative coverage of the two delivery methods (oral and continuous infusion) is by comparing area-under-the-curve (AUC) values. We can compare the calculated AUC values for the continuous infusion oncology study presented in FIG. 3 and the AUC values associated with the synuclein model doses in the table. […] The AUCs of orally dosed LNK-754-TS at 0.9 mg/kg and at 0.09 mg/kg QD are 34.6 and […], respectively.

[2] = system: p70 S6 kinase (S6K) phosphorylation, mTOR pathway; assay: p70 S6 kinase phosphorylation in SH-SY5Y cells; type: cell-based, human; conditions: SH-SY5Y (FIG. 8f)
Source text: Rapamycin is a well-characterized autophagy stimulator that acts through inhibition of mTOR, a kinase involved in nutrient signaling and regulation of cell growth and survival.

Structure (SMILES) | mitochondrial dynamics (fusion and fission) (INS-1 cells) | GGTase inhibitory activity (GGTase) | decrease in fragmentation induced by palmitate (INS1 cells) [%] | increase in normal mitochondrial morphology (INS1 cells; palmitate, vs no treatment) [%] | phosphorylated Tau (AT180) immunoreactivity in amygdala (TAU) | total TAU (HT7) immunoreactivity (TAU) | AUC [1] [ng·h/mL] | phosphorylation of p70 S6 kinase (S6K) [2]
C#Cc1cccc(-c2cc(=O)n(C)c3ccc([C@](O)(c4ccc(Cl)cc4)c4cncn4C)cc23)c1 [LNK-754, (R)-6-[(4-chlorophenyl)-hydroxyl-(1-methyl-1-H-imidazol-5-yl)-methyl]-4-(3-ethynylphenyl)-1-methyl-2-(1H)-quinonlinone] | promotes mitochondrial dynamics | little to no GGTase inhibitory activity | ~55 | ~70 |  |  |  | 
C#Cc1cccc(-c2cc(=O)n(C)c3ccc([C@](O)(c4ccc(Cl)cc4)c4cncn4C)cc23)c1 [LNK-754-TS, (R)-6-[(4-chlorophenyl)-hydroxyl-(1-methyl-1-H-imidazol-5-yl)-methyl]-4-(3-ethynylphenyl)-1-methyl-2-(1H)-quinonlinone (2S, 3S)-dihydroxybutanedioate] |  |  |  |  | significantly decreased; also recorded: significant reduction; also recorded: significantly reduced | not significantly reduced; also recorded: did not change | ~2400 | did not inhibit phosphorylation
